Where two headings read alike, the source gives them in different places.
Experiments:
[1] = test system: zebrafish embryos (wild-type strain OBI/WIK); assay: ISV inhibition (angiogenesis) by video subtraction in wildtype zebrafish embryos; assay type: in vivo, zebrafish (D. rerio)
Protocol: A wild-type adult zebrafish strain (D. rerio, strain OBI/WIK, generation F3), originating from an in-house cross of zebrafish strains UFZ-OBI and WIK, was used for all experiments. The Tg(kdr:EGFP) strain was kindly provided by the University of Jena. Fish were fed twice daily with dry food (SDS-400, Special Diets Services, Essex England) and once daily with Artemia sp. […] Spawning trays were inserted 4–6 h before the end of the light cycle. The following day, spawning was initiated by the onset of light and eggs were collected within 1 h. Exposure in all experiment was ceased at 96 hpf.
(§1) Exposure was conducted in rectangular 96-well microplates (Clear Polystyrene, flat bottom, Uniplate, Whatman, GE Healthcare) covered by a lid with a test volume of 400 µL of exposure media. For each replicate one embryo per well and 16 wells per concentration were assessed. Experiments were performed with at least two replicates on independent days and breeding.
To determine the number of ISVs in the trunk region, high-resolution images of 96 hpf-old zebrafish embryos were recorded using a Leica DM6B-Z microscope (Leica, Wetzlar, Germany) attached to the VAST imaging system, and a camera (Leica DFC9000 sCMOS, objective: HC APO L U-V-I 20x/0.50 WATER UV). A series of 20 images with a frame rate of 20 images per second and a 2 × 2 pixel binning was recorded in autofocus mode for each embryo.
A series of MATLAB scripts (Supplement File ‘Workflow 3.m’ and ‘Workflow 4.m’) was used to convert the image series into a video and to visualize the blood vessel by applying a video subtraction approach (Figure SI1). Briefly, each video frame was subtracted from the average image of the whole image sequence and converted to a binary image by applying a Gaussian blur (σ = 5) and a threshold of 0.025 to obtain optimal contrast in binary images. Subsequently, the sum of all binary images was calculated. Due to movement of the blood cells the subtraction approach removed all parts from the image which were not moving resulting in an image of the blood vessels. This binary image of the blood vessel network in the zebrafish embryo tail was then processed with the FishInspector annotation software (version 1.70). […] The number of ISVs was obtained by application of a KNIME workflow to FishInspector annotation files. Subsequently concentration–response analysis was conducted using a KNIME workflow. The coefficient of variation (CV) of controls was calculated for both the subtraction and the fluorescence-based method by dividing the standard deviation of individual embryos with the control mean: CVControl=SD/Mean.
The assessment of lethality and morphological features was based on the percentage of embryos affected. Therefore, morphological endpoints were dichotomized, i.e. feature metrics were converted to the percentage of embryos deviating from controls. An embryo was considered to deviate when it was outside 1.5-fold of the standard deviation range of the mean of the control group. The control mean was determined by pooling control embryos across all experiments (n = 160) (available at git.ufz.de). For heart rate and angiogenesis (number of ISVs) the analysis was based on normalized values, i.e. for each experiment the values of the treatment were divided by the control value. The experiments were designed to calculate effect concentrations based on modelled curve fits. Different concentrations were used in at least two independent replicates, with means of each replicate based on the exposure of 16 different embryos per concentrations. Effect concentration were only modeled when three conditions were met. […] (2) The Akaike information criterion (AIC) for the log-logistic model was lower than the AIC for a linear model with slope 0 (lower p values for the letter would indicate that there is no trend in the data).

[2] = Lethality of zebrafish embryos at 96 hpf; assay type: in vivo, zebrafish (D. rerio); details: OBI/WIK wild-type, zebrafish, in vivo, other: immersion of embryos in exposure media, ± 95% confidence intervals
Protocol: as §1, with “Fertilized and normally developed embryos were selected according to Kimmel et al. ([1995]) with a dissection microscope (Olympus SZx7-ILLT) at 1 hpf. Depending on experiment, exposure was started within 2–3 h post-fertilization (16–128 cell stages) or at 24 hpf. Exposure” for “Exposure”
Concentration–response curves were fitted for lethality, heart rate, morphological features as previously described (Teixidó et al. [2019], [2022]). The assessment of lethality and morphological features was based on the percentage of embryos affected. Therefore, morphological endpoints were dichotomized, i.e. feature metrics were converted to the percentage of embryos deviating from controls. An embryo was considered to deviate when it was outside 1.5-fold of the standard deviation range of the mean of the control group. The control mean was determined by pooling control embryos across all experiments (n = 160) (available at git.ufz.de). For heart rate and angiogenesis (number of ISVs) the analysis was based on normalized values, i.e. for each experiment the values of the treatment were divided by the control value. The experiments were designed to calculate effect concentrations based on modelled curve fits. Different concentrations were used in at least two independent replicates, with means of each replicate based on the exposure of 16 different embryos per concentrations. Effect concentration were only modeled when three conditions were met. (1) The Tukey trend test based on the R package "tukeytrend" (Schaarschmidt et al. [2022]) was deriving a maximum p-value of 0.05. (2) The Akaike information criterion (AIC) for the log-logistic model was lower than the AIC for a linear model with slope 0 (lower p values for the letter would indicate that there is no trend in the data). (3) We calculated effect concentrations only if at least 30% of embryos for that endpoint were affected in at least one exposure concentration of (for normalized data) a reduction or increase by 30% was observed.

[3] = test system: early life stage zebrafish; details: cited from earlier work
[4] = Danio rerio, 24–96 hpf exposure, ± 95% confidence intervals, read-out: IC50 of ISV inhibition

Compound	IC50 [1, 4] [nM]	LC50 ([2]; 3–96 hpf exposure) [nM]	LC50 ([2]; 24–96 hpf exposure) [nM]	Reduction (ISV) ([3]; late exposure scenario, 40 µM, ref Parng et al. [2002]) [%]	Concentration with complete ISV inhibition ([3]; late exposure scenario, ref Panneerselvan and Ragunathan [2018]) [µM]	Concentration with inhibition of ISV formation ([3]; ref Serbedzija et al. [1999]) [µM]	IC50 ([1]; 3–96 hpf exposure, ± 95% confidence intervals, read-out: IC50 of ISV inhibition) [nM]	IC50 ([1]; 24–96 hpf exposure, ± 95% confidence intervals, read-out: IC50 of ISV inhibition) [nM]	IC50 ([1]; exposure window not stated at this place, read-out: IC50 / loss of ISV number, current study as restated in discussion) [nM]	IC50 ([3]; ref Tal et al. [2014], read-out: IC50 (ISV inhibition)) [nM]	IC50 ([1]; Danio rerio, 3–96 hpf exposure, ± 95% confidence intervals, read-out: IC50 of ISV inhibition) [nM]	IC50 ([3]; ref Lin et al. [2019], read-out: IC50 from scoring system of different ISV length) [nM]
Cc1cc(C)c(/C=C2\C(=O)Nc3ccccc32)[nH]1 [SU5416]	2100 ± 350	890 ± 420	1930 ± 830	40	2	1						
CN(C)c1ccc(C=C2C(=O)Nc3ccccc32)cc1 [SU4312]							2300 ± 420	2590 ± 600	90	1800		
CNC(=O)c1cc(Oc2ccc(NC(=O)Nc3ccc(Cl)c(C(F)(F)F)c3)cc2)ccn1 [Sorafenib]	1360 ± 240	2800 ± 310									1370 ± 100	530
